# Measured values as given in patent US10676471B2, “Cycloalkyl-linked diheterocycle derivatives” (Pfizer Inc., priority 2014, dated 2020).
# Test system: BT20 Cell
# Test: Cancer Cell Lysate Total L-Glutamate Assay
# Format: cell-based
# Details: Homo sapiens, BT-20, 2 h, total L-glutamate in cell lysate, BT20 cells, 2 hour incubation with test compound
# Method in brief: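 BT20 and other cancer lines at ~80% confluence were given fresh L-glutamine-containing medium, then treated with serially diluted compound (0.5% DMSO) for 2 hours at 37° C. Washed cells were lysed by freeze-thaw and sonication. Lysate glutamate was measured via glutamate oxidase/HRP/50 μM Amplex Red fluorescence (ex 530-560, em 585 nm); IC50 by four-parameter logistic fit.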
row,Compound,IC50 [nM]
1,"O=C(Cc1ccccn1)Nc1nnc(C[C@H]2CC[C@@H](c3nnc(Nc4ccccn4)s3)C2)s1 (single isomer, unassigned) [Example 86, 2-(pyridin-2-yl)-N-[5-({(cis)-3-[5-(pyridin-2-ylamino)-1,3,4-thiadiazol-2-yl]cyclopentyl}methyl)-1,3,4-thiadiazol-2-yl]acetamide]",4.8
2,"Cc1ccc(CC(=O)Nc2nnc([C@H]3C[C@@H](Cc4nnc(NC(=O)Cc5ccccn5)s4)C3)s2)nc1 (single isomer, unassigned) [Example 112, 2-(5-methylpyridin-2-yl)-N-{5-[cis-3-({5-[(pyridin-2-ylacetyl)amino]-1,3,4-thiadiazol-2-yl}methyl)cyclobutyl]-1,3,4-thiadiazol-2-yl}acetamide]",0.2
3,"CC(C)C(=O)Nc1nnc(C[C@H]2C[C@@H](c3nnc(NC(=O)Cc4ccccn4)s3)C2)s1 (single isomer, unassigned) [Example 104, 2-methyl-N-{5-[(cis-3-{5-[(pyridin-2-ylacetyl)amino]-1,3,4-thiadiazol-2-yl}cyclobutyl)methyl]-1,3,4-thiadiazol-2-yl}propanamide]",8.6
4,"CCC(=O)Nc1ccc(C[C@@H]2CC[C@H](c3nnc(NC(=O)Cc4ccccn4)s3)C2)nn1 (single isomer, unassigned) [Example 79, N-(6-{[(cis)-3-{5-[(pyridin-2-ylacetyl)amino]-1,3,4-thiadiazol-2-yl}cyclopentyl]methyl}pyridazin-3-yl)propanamide]",1.1
5,"CCC(=O)Nc1ccc(C[C@@H]2CC[C@H](c3nnc(NC(=O)Cc4ccn(C)n4)s3)C2)nn1 (single isomer, unassigned) [Example 92, N-(6-{[(cis)-3-(5-{[(1-methyl-1H-pyrazol-3-yl)acetyl]amino}-1,3,4-thiadiazol-2-yl)cyclopentyl]methyl}pyridazin-3-yl)propanamide]",0.2
6,"CC(=O)Nc1ccc(C[C@H]2CC[C@@H](c3nnc(NC(=O)Cc4ccccn4)s3)C2)nn1 (single isomer, unassigned) [Example 68, N-{5-[(cis)-3-{[6-(acetylamino)pyridazin-3-yl]methyl}cyclopentyl]-1,3,4-thiadiazol-2-yl}-2-(pyridin-2-yl)acetamide]",7.1
7,"CC(C)C(=O)Nc1ccc([C@H]2C[C@@H](Cc3nnc(NC(=O)Cc4ccccn4)s3)C2)nn1 (single isomer, unassigned) [Example 125, 2-methyl-N-{6-[cis-3-({5-[(pyridin-2-ylacetyl)amino]-1,3,4-thiadiazol-2-yl}methyl)cyclobutyl]pyridazin-3-yl}propanamide]",3.1
8,"CC(C)C(=O)Nc1nnc([C@H]2CC3(C[C@H](c4nnc(NC(=O)C(C)C)s4)C3)C2)s1 (stereo partly shown) [Example 95, N,N′-(spiro[3.3]heptane-2,6-diyldi-1,3,4-thiadiazole-5,2-diyl)bis(2-methylpropanamide)]",1.4
9,"COCCC(=O)Nc1nnc([C@@H]2CC[C@H](Cc3ccc(NC(=O)Cc4ccccn4)nn3)C2)s1 (single isomer, unassigned) [Example 121, 3-methoxy-N-{5-[(cis)-3-({6-[(pyridin-2-ylacetyl)amino]pyridazin-3-yl}methyl)cyclopentyl]-1,3,4-thiadiazol-2-yl}propanamide]",4
10,"CC(=O)Nc1ccc(C[C@H]2C[C@@H](c3nnc(NC(=O)Cc4ccccn4)s3)C2)nn1 (single isomer, unassigned) [Example 114, N-[5-(cis-3-{[6-(acetylamino)pyridazin-3-yl]methyl}cyclobutyl)-1,3,4-thiadiazol-2-yl]-2-(pyridin-2-yl)acetamide]",6.5
11,"CC(=O)Nc1nnc(C2CC[C@H](Cc3nnc(NC(=O)Cc4ccccc4)s3)C2)s1 (single isomer, unassigned) [Example 16, N-[5-({(cis)-3-[5-(acetylamino)-1,3,4-thiadiazol-2-yl]cyclopentyl}methyl)-1,3,4-thiadiazol-2-yl]-2-phenylacetamide]",399
12,"CC(=O)Nc1nnc(C2CCC(Cc3nnc(NC(=O)c4ccccc4)s3)C2)s1 (racemic) [Example 11, N-[5-({(cis)-3-[5-(acetylamino)-1,3,4-thiadiazol-2-yl]cyclopentyl}methyl)-1,3,4-thiadiazol-2-yl]benzamide]",47.9
13,"O=C(Cc1ccccn1)Nc1ccc(C[C@H]2CC[C@@H](c3nnc(NC(=O)Cc4ccccn4)s3)C2)nn1 (single isomer, unassigned) [Example 71, 2-(pyridin-2-yl)-N-{5-[(cis)-3-({6-[(pyridin-2-ylacetyl)amino]pyridazin-3-yl}methyl)cyclopentyl]-1,3,4-thiadiazol-2-yl}acetamide]",2.7
14,"CCC(=O)Nc1nnc([C@H]2C[C@H](Cc3nnc(NC(=O)Cc4ccccn4)s3)C2)s1 (single isomer, unassigned) [Example 106, N-{5-[trans-3-({5-[(pyridin-2-ylacetyl)amino]-1,3,4-thiadiazol-2-yl}methyl)cyclobutyl]-1,3,4-thiadiazol-2-yl}propanamide]",13.7
15,"C[C@H](c1nnc(NC(=O)Cc2ccccn2)s1)[C@H]1C[C@@H](c2nnc(NC(=O)Cc3ccccn3)s2)C1 (single isomer, unassigned) [Example 102, 2-(pyridin-2-yl)-N-{5-[(1-(cis)-3-{5-[(pyridin-2-ylacetyl)amino]-1,3,4-thiadiazol-2-yl}cyclobutyl)ethyl]-1,3,4-thiadiazol-2-yl}acetamide]",2
16,"CC(=O)Nc1nnc(CC2CCC(c3nnc(NC(=O)Cc4ccccn4)s3)C2)s1 (racemic) [Example 55, (rac)-N-{5-[(cis)-3-{[5-(acetylamino)-1,3,4-thiadiazol-2-yl]methyl}cyclopentyl]-1,3,4-thiadiazol-2-yl}-2-(pyridin-2-yl)acetamide]",391
17,"CC(C(=O)Nc1nnc(CC2CCC(c3nnc(NC(=O)C(C)c4cccnc4)s3)C2)s1)c1cccnc1 (racemic) [Example 30, (rac)-2-(pyridin-3-yl)-N-(5-{[(cis)-3-(5-{[2-(pyridin-3-yl)propanoyl]amino}-1,3,4-thiadiazol-2-yl)cyclopentyl]methyl}-1,3,4-thiadiazol-2-yl)propanamide]",1.9
18,"O=C(Cc1ccccc1)Nc1nnc(C[C@@H]2CC[C@H](c3nnc(NC(=O)Cc4ccccc4)s3)C2)s1 (single isomer, unassigned) [Example 8]",1.4
19,"CC(C)C(=O)Nc1nnc(C2CC3(CC(c4nnc(NC(=O)Cc5ccccn5)s4)C3)C2)s1 (racemic) [Example 135, 2-methyl-N-[5-(6-{5-[(pyridin-2-ylacetyl)amino]-1,3,4-thiadiazol-2-yl}spiro[3.3]hept-2-yl)-1,3,4-thiadiazol-2-yl]propanamide]",2.1
20,"O=C(Cc1ccccn1)Nc1ccc(C[C@@H]2CC[C@H](c3nnc(NC(=O)C[C@H]4CCCO4)s3)C2)nn1 (single isomer, unassigned) [Example 130]",1.8
21,"CC(=O)Nc1nnc([C@@H]2CC[C@H](Cc3nnc(NC(=O)Cc4cn5ccccc5n4)s3)C2)s1 (racemic) [Example 149, (rac)-N-[5-({(cis)-3-[5-(acetylamino)-1,3,4-thiadiazol-2-yl]cyclopentyl}methyl)-1,3,4-thiadiazol-2-yl]-2-(imidazo[1,2-a]pyridin-2-yl)acetamide]",6.9
22,"CC(=O)Nc1nnc([C@@H]2CC[C@H](Cc3nnc(NC(=O)Cc4cncnc4)s3)C2)s1 (single isomer, unassigned) [Example 50, N-[5-({(cis)-3-[5-(acetylamino)-1,3,4-thiadiazol-2-yl]cyclopentyl}methyl)-1,3,4-thiadiazol-2-yl]-2-(pyrimidin-5-yl)acetamide]",8750
23,"O=C(Cc1ccccn1)Nc1ccc(CC2CCC(c3nnc(NC(=O)C[C@H]4CCCO4)s3)C2)nn1 (mixture of isomers) [Example 129, (rac)-2-(pyridin-2-yl)-N-(6-{[(cis)-3-(5-{[(2R)-tetrahydrofuran-2-ylacetyl]amino}-1,3,4-thiadiazol-2-yl)cyclopentyl]methyl}pyridazin-3-yl)acetamide]",2.2
24,"CC(=O)Nc1nnc([C@H]2CC[C@@H](Cc3nnc(NC(=O)Cc4ccc(C)nc4)s3)C2)s1 (single isomer, unassigned) [Example 53, N-[5-({(cis)-3-[5-(acetylamino)-1,3,4-thiadiazol-2-yl]cyclopentyl}methyl)-1,3,4-thiadiazol-2-yl]-2-(6-methylpyridin-3-yl)acetamide]",6.8
25,"CC(C)(C)C(=O)Nc1nnc(C[C@@H]2CC[C@H](c3nnc(NC(=O)C(C)(C)C)s3)C2)s1 (single isomer, unassigned) [Example 29, N-(5-{[(cis)-3-{5-[(2,2-dimethylpropanoyl)amino]-1,3,4-thiadiazol-2-yl}cyclopentyl]methyl}-1,3,4-thiadiazol-2-yl)-2,2-dimethylpropanamide]",167
26,"O=C(Cc1ccccn1)Nc1ccc(C2CCC(Cc3nnc(NC(=O)Cc4ccccn4)s3)C2)nn1 (racemic) [Example 26, 2-(pyridin-2-yl)-N-{5-[(3-{6-[(pyridin-2-ylacetyl)amino]pyridazin-3-yl}cyclopentyl)methyl]-1,3,4-thiadiazol-2-yl}acetamide]",1.3
27,"O=C(Cc1ccccn1)Nc1nnc([C@H]2CC3(C[C@H](c4nnc(NC(=O)Cc5ccccn5)s4)C3)C2)s1 (single isomer, unassigned) [Example 99, N,N′-(spiro[3.3]heptane-2,6-diyldi-1,3,4-thiadiazole-5,2-diyl)bis[2-(pyridin-2-yl)acetamide]]",0.3
28,"CCNc1nnc(C2CCC(Cc3nnc(NC(=O)Cc4ccccn4)s3)C2)s1 (racemic) [Example 24, (rac)-N-[5-({(cis)-3-[5-(ethylamino)-1,3,4-thiadiazol-2-yl]cyclopentyl}methyl)-1,3,4-thiadiazol-2-yl]-2-(pyridin-2-yl)acetamide]",78.9
